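Following 48 hours of exposure in 96-well plates, responses at five concentrations were used to interpolate endpoints linearly. At the TGI there is no net growth.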 *1 amine or outer side, *2 acyl side, *3 side chain or, on linkers, in order; H or OH if unused. Where a SMILES comes first, the peptide text is derived from it. [ ]: non-standard residue; d: D form. X33 = C=CCC(O[*:1])C(=O)[*:2]; NMeV = CN[CH](C(=O)O)C(C)C; NMeA = CN[CH](C)C(=O)O; βAla = NCCC(=O)O
Legend:
Assay in all cases: inhibition of tumour cell growth, NCI panel, 48 h
HCT-15 colon = system: HCT-15 colon
HOP-62 NSCLC = system: HOP-62 NSCLC
MDA-MB-435 = system: MDA-MB-435

SMILES | TGI (HCT-15 colon) | TGI (HOP-62 NSCLC) | TGI (MDA-MB-435)
CC1(C)OC(=O)C2(O1)C(=O)C1CCCCC12 (stereo unspecified) | > 100 µM | > 100 µM | > 100 µM
O=c1[nH]c(-c2ccccc2)nc2c1sc1nc3ccccc3n12 | > 100 µM |  | > 100 µM
CCOC(=O)Nc1nn(C)c(=NCc2ccccc2)s1 | > 100 µM | > 100 µM | > 100 µM
CC(C)/C(Cl)=N\OC(=O)Nc1ccc(F)cc1F | 21.8 µM | 31.8 µM | 
CCOc1ccc(NCC2CC/C(=C\c3ccc(O)cc3)C2=O)cc1 (stereo unspecified) | 17.8 µM | > 67.1 µM | 35.8 µM
COc1cccc2c1C(=O)c1ccc3cc(CCl)cc(O)c3c1C2=O | 1.13 µM | 1.08 µM | 0.46 µM
Cc1ccc2c(c1)-c1c(C#N)c(N)nc(-c3ccccc3)c1CCS2(=O)=O | > 100 µM | > 100 µM | > 36.5 µM
NC(=O)NC(=O)c1cccc(NC(=O)CF)c1 | > 100 µM | > 100 µM | > 100 µM
CCCCOCCOC1=CC(=O)c2c(O)ccc(O)c2C1=O |  | 1.8 µM | 0.334 µM
Cc1cc2nc(-c3c(F)cccc3F)n(Cc3c(F)cccc3F)c2cc1C | 27.6 µM | 28.7 µM | 32.8 µM
CCOc1cc2c(cc1OC(C)=O)C(=O)CC[C@H]1C3CC[C@H](OC(C)=O)[C@@]3(C)CC[C@H]21 (stereo partly specified) | > 100 µM | > 100 µM | > 100 µM
Cc1ccc(S(=O)(=O)Nn2c(S)c(C#N)c(-c3ccc([N+](=O)[O-])cc3)c(C#N)c2=O)cc1 | 49.7 µM | > 100 µM | 53.9 µM
Cc1ccc(S(=O)(=O)NNC2(NS(=O)(=O)c3ccc(Cl)cc3)C(Cl)=C(Cl)C(=O)c3ccccc32)cc1 (stereo unspecified) | 83.8 µM | 54.8 µM | 36 µM
O=C1[C@@H]2C[C@@H](O)CN2C(=O)c2ccccc2N1CCCO | > 100 µM | > 100 µM | > 100 µM
C/C(CC1SCCCS1)=C(/C)CC1SCCCS1 | > 100 µM | > 100 µM | > 100 µM
NNCCc1n[nH]c(=O)n1N | > 100 µM | > 100 µM | > 100 µM
O=C(/C=C/c1ccccc1)CSc1nc2ccc(I)cc2c(=O)n1Cc1ccccc1 | > 100 µM | 59.1 µM | > 100 µM
CC(=O)N(CN1C(=O)CCC1C(=O)O)c1cccc(O)c1 (stereo unspecified) | > 100 µM | > 100 µM | > 100 µM
Nc1ncnc2c1cnn2Cc1cn(COCC(O)CO)nn1 (stereo unspecified) | > 100 µM | > 100 µM | > 100 µM
CC(C)(C)OC(=O)N/N=C(/N)Cc1ccccc1 | > 100 µM | > 100 µM | > 100 µM

SMILES | TGI (HCT-15 colon) | TGI (HOP-62 NSCLC) | TGI (MDA-MB-435)
CC(C)(C)[Si](C)(C)OCCOCn1cc(F)c(=O)[nH]c1=O | > 100 µM | > 100 µM | > 100 µM
COc1cc(Oc2nc3c(N)cc(C(F)(F)F)cc3nc2-c2ccccc2)cc(OC)c1OC | > 100 µM | > 46.7 µM | 
COC(=O)[C@@]12C(=O)C(C)C(=O)[C@]1(C)C(C)=C[C@H]1[C@]3(C=O)CC[C@H](OC(C)=O)C(C)(C)[C@H]3CC[C@@]12C (stereo partly specified) | > 100 µM | > 100 µM | > 100 µM
C[n+]1cccc2ccc(OC(=O)c3ccccc3)cc21 | > 100 µM | > 100 µM | > 100 µM
O=c1oc(-c2ccccc2)c(-c2ccccc2)n1-c1ccc(Br)cc1 | > 100 µM | > 100 µM | > 100 µM
O=c1c2cn[nH]c2nc2scc(-c3ccc(Cl)cc3)n12 | > 100 µM | > 100 µM | > 100 µM
NC(CCCCNC(=O)CNC(=O)OCc1ccccc1)C(=O)NC(CCCCNC(=O)CNC(=O)OCc1ccccc1)C(=O)NC(CCCCNC(=O)CNC(=O)OCc1ccccc1)C(=O)NC(CCCCNC(=O)CNC(=O)OCc1ccccc1)C(=O)NC(CCCCNC(=O)CNC(=O)OCc1ccccc1)C(=O)NC(CCCCNC(=O)CNC(=O)OCc1ccccc1)C(=O)O (stereo unspecified) | > 75 µM | > 75 µM | > 75 µM
Cn1cnc(N2CCCC2)c(C#N)c1=O | > 100 µM | > 100 µM | > 100 µM
O=C(Cc1ccccc1)NCCCN(CCCCN(CCCNC(=O)Cc1ccccc1)C(=O)OCc1ccccc1)C(=O)OCc1ccccc1 | > 100 µM | > 100 µM | > 100 µM
CCCCCC[C@H]1C(=O)O[C@H](C)[C@H](NC(=O)c2cccc(NC=O)c2OC)C(=O)O[C@@H](C)[C@@H]1OC(=O)CC(C)C (tested in a mixture with another compound) | > 100 µM | > 100 µM | > 100 µM
COc1ccc(C(=O)/C=C/c2cccnc2)cc1OC | 23.9 µM | 28.2 µM | 30.1 µM
CN(C)CCn1c(=O)c2ccc3c4c(nn3CCN(C)C)c3cc(O)ccc3n(c1=O)c24 | 3.36 µM | 0.566 µM | 0.641 µM
O=C1/C(=C/c2ccccc2)CCC/C1=C\c1ccc(O)c(CN2CCCCC2)c1 | 3.74 µM | 32 µM | 7.5 µM
Cc1n[nH]c(=O)n1/N=C\CC/C=N\n1c(C)n[nH]c1=O | > 100 µM | > 100 µM | > 100 µM
C=CCC1OC(=O)CCNC(=O)C(C)N(C)C(=O)C(C(C)C)N(C)C(=O)C(C(C)CC)NC(=O)C2CCCN2C1=O (stereo unspecified) (cyclo([X33]PI[NMeV][NMeA][βAla]); configuration not given here) | > 100 µM | > 100 µM | > 100 µM
Nc1nc(N)c2[nH]cnc2n1 (tested in a mixture with another compound) | > 100 µM | > 100 µM | 77.5 µM
COC(=O)C1=C(C)NC(C)=C(C(=O)OC)C1c1cccc(NO)c1 | 41.4 µM | > 100 µM | 30.9 µM
CN(CCCN(C)CCc1ccc(Cl)c(Cl)c1)CCCN1CCCC1 | 7.22 µM | 10.5 µM | 1.42 µM
C/C(=N\NC(=S)NC(C)(C)C)c1ccccn1 | > 100 µM | > 100 µM | > 100 µM
O=C(/C=C/c1ccc(Cl)cc1)c1cccs1 | 49.9 µM | 89.8 µM | 25.9 µM

— PubChem BioAssay (NCI)
